From ChEMBL document CHEMBL4715898, “Synthesis and structure-activity relationships of pyrimidine derivatives as potent and orally active FGFR3 inhibitors with both increased systemic exposure and enhanced in vitro potency” (Bioorg Med Chem, 2021)
pIC50: −log10 of the molar value. Values after ≈ are worked out from the molar mass of the structure shown.

Experiments:
in vitro = settings: PAMPA, pH 7.4
physchem [1] = settings: JP2 fluid, pH 6.8
physchem [2] = settings: buffer, pH 7.4
[3] = mouse, in vivo, po, 30 mg/kg, 0.75 h
in vivo = settings: ICR, mouse, plasma, po, 30 mg/kg
animal or person = settings: Mus musculus, Balb/c, NIH3T3, po, 6 h, read-out: INH
cells = settings: Homo sapiens, NIH3T3, 120 h

Papp at 2 h (in vitro) [×10⁻⁶ cm/s] | solubility at 20 h, 10000 µM (physchem [1]) [µM] | logD (physchem [2]) | CL [3] [mL/min/kg] | concentration at 6 h (in vivo) [nM] | pIC50 (cells) | Structure (SMILES) | inhibition in vivo at 30 mg/kg (animal or person) [%]
18.7 | 5 (≈ 3.08 µg/mL) | 4.4 | – | – | – | COc1cc(Nc2ncc(CCc3c(Cl)c(OC)cc(OC)c3Cl)cn2)ccc1N1CCC(N2CCN(C)CC2)CC1 | –
> 30 | ≥ 100 | 3.4 | – | – | – | COc1cc(OC)cc(OCc2cnc(Nc3ccc(N4CCC(N5CCN(C)CC5)CC4)c(OC)c3)nc2)c1 | –
15.1 | ≥ 100 | 3.5 | 227 | 1120 | – | COc1cc(CCc2cnc(Nc3ccc(N4CCC(N5CCN(C)CC5)CC4)c(OC)c3)nc2)cc(OC)c1 | 21
0.4 | 36 (≈ 23.5 µg/mL) | 3.7 | – | – | – | COc1cc(OC)cc(C(=O)Nc2cnc(Nc3ccc(N4CCC(N5CCN(C)CC5)CC4)c(OC)c3)nc2Nc2ccccc2)c1 | –
24.4 | ≥ 100 | 3.2 | – | – | – | COc1cc(CCc2cnc(Nc3ccc(N4CCC(N5CCN(C)CC5)CC4)c(OC)c3)nc2)c(F)c(OC)c1 | –
1.8 | < 1 | > 4.8 | – | – | 7.47 | CCNS(=O)(=O)c1ccccc1Nc1nc(Nc2ccc(N3CCC(N4CCN(C)CC4)CC3)c(OC)c2)ncc1CCc1cc(OC)cc(OC)c1 | –
18.5 | ≥ 100 | 3.2 | – | – | – | COc1cc(COc2cnc(Nc3ccc(N4CCC(N5CCN(C)CC5)CC4)c(OC)c3)nc2)cc(OC)c1 | –
1.4 | < 1 | > 3.9 | > 600 | 98.2 | 7.00 | CCNS(=O)(=O)c1ccccc1Nc1nc(Nc2ccc(N3CCC(N4CCN(C)CC4)CC3)c(OC)c2)ncc1NC(=O)c1cc(OC)cc(OC)c1 | –

The next lines start with the compound.

Structure (SMILES) | Papp at 2 h (in vitro) [×10⁻⁶ cm/s] | solubility at 20 h, 10000 µM (physchem [1]) [µM] | logD (physchem [2]) | CL [3] [mL/min/kg] | concentration at 6 h (in vivo) [nM] | pIC50 (cells) | inhibition in vivo at 30 mg/kg (animal or person) [%]
COc1cc(OC)cc(C(=O)Nc2cnc(Nc3ccc(N4CCC(N5CCN(C)CC5)CC4)c(OC)c3)nc2NCCS(C)(=O)=O)c1 | < 0.2 | ≥ 100 | 1.8 | – | – | – | –
COc1cc(CNc2cnc(Nc3ccc(N4CCC(N5CCN(C)CC5)CC4)c(OC)c3)nc2)cc(OC)c1 | 18.1 | ≥ 100 | 2.9 | – | – | – | –
COc1cc(OC)cc(C(=O)Nc2cnc(Nc3ccc(N4CCC(N5CCN(C)CC5)CC4)c(OC)c3)nc2)c1 | < 2.9 | ≥ 100 | 2.8 | – | – | – | –
COc1cc(OC)cc(C(=O)N(C)c2cnc(Nc3ccc(N4CCC(N5CCN(C)CC5)CC4)c(OC)c3)nc2)c1 | 3.7 | ≥ 100 | 1.8 | – | – | – | –
COc1cc(Nc2ncc(CCc3c(F)c(OC)cc(OC)c3Cl)cn2)ccc1N1CCC(N2CCN(C)CC2)CC1 | 19.4 | 12 (≈ 7.19 µg/mL) | 3.5 | – | – | – | –
